Measured values as given in US9274101B2 (BIOLOG, Inc., priority 2001, dated 2016).
“Also recorded” adds a separate entry of the source. Where a SMILES comes first, the peptide text is derived from it.

These compounds were tested on ten strains of E. coli.
Assay type: cell-based, Escherichia coli

| Compound | carbon source utilization | carbon source utilization (text) |
| --- | --- | --- |
| OC[C@H]1O[C@@H](O[C@@H]2[C@@H](CO)OC(O)(CO)[C@H]2O)[C@H](O)[C@@H](O)[C@H]1O (mixture of isomers) [Lactulose] | + and − |  |
| O=C(O)CC(O)C(=O)O (racemic) [D,L-malic acid] | + |  |
| CC(O)CO (centres unmarked) [1,2-propanediol] | − |  |
| CC(=O)O [Acetic acid] | + |  |
| OC[C@@H](O)[C@@H](O)[C@@H](O)CO [Adonitol] | − |  |
| O=C(O)CC(Br)C(=O)O (centres unmarked) [Bromo succinic acid] | + |  |
| O=C[C@H](O)[C@@H](O)[C@H](O[C@@H]1O[C@H](CO)[C@@H](O)[C@H](O)[C@H]1O)[C@H](O)CO [Cellobiose] | − |  |
| O=C(CO)[C@@H](O)[C@H](O)[C@H](O)CO [D-fructose] | + |  |
| O=C[C@H](O)[C@@H](O)[C@@H](O)[C@H](O)CO [D-galactose] | + |  |
| O=C(O)[C@H](O)[C@@H](O)[C@H](O)[C@H](O)CO [D-gluconic acid] | + |  |
| N[C@@H](C(=O)O)[C@@H](O)[C@H](O)[C@H](O)CO [D-glucosaminic acid] | − |  |
| O=C[C@H](O)[C@@H](O)[C@H](O)[C@H](O)C(=O)O [D-glucuronic acid] | + |  |
| O=C(O)C[C@@H](O)C(=O)O [D-malic acid] | + |  |
| OC[C@@H](O)[C@@H](O)[C@H](O)[C@H](O)CO [D-mannitol] | + |  |
| OC[C@H]1O[C@H](OCC2O[C@@H](O)[C@H](O)[C@@H](O)[C@@H]2O)[C@H](O)[C@@H](O)[C@H]1O (stereo partly drawn) [D-melibiose] | + |  |
| O=C[C@H](O)[C@H](O)[C@H](O)CO [D-ribose] | + |  |
| O=C(O)[C@@H](O)[C@@H](O)[C@H](O)[C@@H](O)C(=O)O [D-saccharic acid] | − and + | negative |
| OC[C@@H](O)[C@@H](O)[C@H](O)[C@@H](O)CO [D-sorbitol] | − and + | sorbitol negative |
| C[C@H](O)[C@@H](N)C(=O)O [D-threonine] | − |  |
| OC[C@H]1O[C@H](O[C@H]2O[C@H](CO)[C@@H](O)[C@H](O)[C@H]2O)[C@H](O)[C@@H](O)[C@@H]1O [D-trehalose] | + |  |
| O=C[C@H](O)[C@@H](O)[C@H](O)CO [D-xylose] | + and − | xylose-positive; also recorded: xylose-negative |
| OC[C@@H](O)[C@H](O)[C@H](O)[C@@H](O)CO [Dulcitol] | − and + |  |
| O=CO [Formic acid] | − and + |  |
| O=C(O)/C=C/C(=O)O [Fumaric acid] | + |  |
| OCC(O)CO [Glycerol] | + and − |  |

| Compound | carbon source utilization | carbon source utilization (text) |
| --- | --- | --- |
| O=C(O)CO [Glycolic acid] | − and + | negative |
| NCC(=O)N[C@@H](CC(=O)O)C(=O)O [Glycyl-L-aspartic acid] (H-Gly-Asp-OH) | + |  |
| NCC(=O)N1CCC[C@H]1C(=O)O [Glycyl-L-proline] (H-Gly-Pro-OH) | + |  |
| O=CC(=O)O [Glyoxylic acid] | − and + |  |
| O=C[C@H](O)[C@@H](O)[C@@H](O)CO [L-arabinose] | + |  |
| C[C@H](O)[C@@H](O)[C@@H](O)[C@H](O)C=O [L-fucose] | + |  |
| C[C@H](O)C(=O)O [L-lactic acid] | + |  |
| O=C[C@H](O)[C@H](O)[C@@H](O)CO [L-lyxose] | − and + |  |
| O=C(O)C[C@H](O)C(=O)O [L-malic acid] | + |  |
| C[C@H](O)[C@H](O)[C@@H](O)[C@@H](O)C=O [L-rhamnose] | + |  |
| O=C(O)Cc1cccc(O)c1 [M-hydroxyphenylacetic acid] | − |  |
| OC[C@H]1O[C@H](O[C@H]2[C@H](O)[C@@H](O)[C@H](O)O[C@@H]2CO)[C@H](O)[C@@H](O)[C@@H]1O [Maltose] | + and − | negative |
| O=C(O)[C@@H](O)[C@H](O)[C@H](O)[C@@H](O)C(=O)O [Mucic acid] | + |  |
| O=C(O)Cc1ccc(O)cc1 [P-hydroxy phenylacetic acid] | − |  |
| CCC(=O)O [Propionic acid] | + and − | negative |
| O=C(O)CCC(=O)O [Succinic acid] | + |  |
| O=C(O)CC(CC(=O)O)C(=O)O [Tricarballylic acid] | − |  |
| CCC(O)C(=O)O (stereo not drawn) [α-hydroxy butyric acid] | + and − | negative |
| CCC(=O)C(=O)O [α-ketobutyric acid] | − and + | negative |
| O=C(O)CCC(=O)C(=O)O [α-ketoglutaric acid] | + and − |  |
| CO[C@H]1O[C@H](CO)[C@H](O)[C@H](O)[C@H]1O [α-methyl galactoside] | + |  |
| COC1OC(CO)C(O)C(O)C1O (stereo not drawn) [β-methyl glucoside] | + |  |
| Maltotriose | + and − | negative |
| Tween-20 | − |  |
| Tween-80 | − and + |  |
